In patent publication US20050065140A1, “Serotonine reuptake inhibitor” (priority 2001, published 2005):

Key:
[1] = target: T1, [^3H]paroxetine binding (serotonin reuptake), cerebral cortex membrane preparation (Rattus norvegicus, UniProt P31652); assay: Screening test using [^3H]paroxetine binding (Test Example 1); settings: [^3H]paroxetine 0.15 nM, test concentration not given
T1 construct: 790 μl of the cerebral cortex membrane preparation (150 μg/tube in terms of protein); from tissue; host or cells: rat cerebral cortex membrane preparation
T1 sequence (P31652 whole entry): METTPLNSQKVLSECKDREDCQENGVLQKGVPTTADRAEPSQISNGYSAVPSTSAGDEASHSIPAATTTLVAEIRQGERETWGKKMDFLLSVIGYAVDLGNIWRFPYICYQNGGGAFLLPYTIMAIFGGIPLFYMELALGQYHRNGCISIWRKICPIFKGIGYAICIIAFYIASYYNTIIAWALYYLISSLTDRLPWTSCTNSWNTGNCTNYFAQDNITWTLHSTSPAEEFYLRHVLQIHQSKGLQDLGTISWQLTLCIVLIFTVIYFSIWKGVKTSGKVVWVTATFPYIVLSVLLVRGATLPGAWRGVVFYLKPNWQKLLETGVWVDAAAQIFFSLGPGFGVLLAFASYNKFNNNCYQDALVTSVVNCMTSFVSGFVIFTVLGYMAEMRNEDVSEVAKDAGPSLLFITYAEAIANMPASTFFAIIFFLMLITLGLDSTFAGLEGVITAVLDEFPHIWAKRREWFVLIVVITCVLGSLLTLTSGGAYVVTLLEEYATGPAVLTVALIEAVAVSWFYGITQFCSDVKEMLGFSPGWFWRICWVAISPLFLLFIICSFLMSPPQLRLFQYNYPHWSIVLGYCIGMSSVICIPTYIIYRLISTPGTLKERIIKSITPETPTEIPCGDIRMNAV
Protocol: Screening Test Using [^3H]Paroxetine Binding
The membrane preparation was prepared according to the method^1a) of D'amato et al. In detail, after a male rat was decapitated, the whole brain was immediately removed and the cerebral cortex was dissected therefrom under ice-cooling. A buffer solution (50 mM Tris-HCl (pH=7.4), 120 mM NaCl, 5 mM KCl) was added to the cerebral cortex in an amount of 25 times the wet weight of the cerebral cortex, followed by homogenization in an ice bath by the use of a Teflon-glass homogenizer. The homogenate was centrifuged at 4° C. and 45,000×g for 10 minutes, and the resulting precipitate was dispersed in an ice-cooled buffer solution (50 mM Tris-HCl (pH=7.4), 120 mM NaCl, 5 mM KCl) by the use of Hiscotron™, followed by centrifugation at 4° C. and 45,000×g for 10 minutes. The resulting precipitate was re-suspended and the washing procedure was repeated. The membrane preparation thus obtained was suspended in the same buffer solution as described above, and then subjected to cryopreservation at −80° C.
[^3H]paroxetine binding was measured according to the method^1b) of Habert E et al. In detail, 200 μl of a dilution (final concentration: 0.15 nM) of [^3H]paroxetine with 50 mM Tris-HCl (pH=7.4) buffer containing 120 mM NaCl and 5 mM KCl, 790 μl of the cerebral cortex membrane preparation (150 μg/tube in terms of protein), 10 μl of a solution of a test drug in dimethyl sulfoxide and 1 ml of the above-mentioned buffer solution were mixed to prepare a liquid having a total volume of 2 ml. After this liquid was allowed to react at room temperature for 60 minutes, it was immediately filtered by suction at a low pressure through glass fiber filter. The glass fiber filter was washed 4 times with 4 ml of the same buffer solution as above and then transferred to a glass vial containing 4 ml of ACS-II (Amersham), and the radioactivity remaining on the filter was measured with a liquid scintillation counter.
Non-specific binding of [^3H]paroxetine was defined as the amount of [^3H]paroxetine bound in the presence of 100 μM 5-HT.
Rate of binding inhibition was calculated by the following equation:
Rate of binding inhibition (%)=100−100×{[amount of [^3H]paroxetine bound in the presence of test substance]−[amount of [^3H]paroxetine bound in the presence of 100 μM 5-HT]/[amount of [^3H]paroxetine bound in the absence of test substance]−[amount of [^3H]paroxetine bound in the presence of 100 μM 5-HT]}

human 5-HT1A receptor = target: T2, human 5-HT1A receptor (Homo sapiens, UniProt P08908); assay: 5-HT1A receptor stimulation test, [^35S]GTPγS binding (Test Example 3); type: biochemical; settings: 10^-5 M test substance; membranes of human 5-HT1A/CHO cells; increase in [^35S]GTPγS binding caused by 10 μM 5-HT taken as 100%
T2 construct: expressed in transfected cells; host or cells: CHO cells (human 5-HT1A/CHO), membrane preparation
T2 sequence (P08908 1-422): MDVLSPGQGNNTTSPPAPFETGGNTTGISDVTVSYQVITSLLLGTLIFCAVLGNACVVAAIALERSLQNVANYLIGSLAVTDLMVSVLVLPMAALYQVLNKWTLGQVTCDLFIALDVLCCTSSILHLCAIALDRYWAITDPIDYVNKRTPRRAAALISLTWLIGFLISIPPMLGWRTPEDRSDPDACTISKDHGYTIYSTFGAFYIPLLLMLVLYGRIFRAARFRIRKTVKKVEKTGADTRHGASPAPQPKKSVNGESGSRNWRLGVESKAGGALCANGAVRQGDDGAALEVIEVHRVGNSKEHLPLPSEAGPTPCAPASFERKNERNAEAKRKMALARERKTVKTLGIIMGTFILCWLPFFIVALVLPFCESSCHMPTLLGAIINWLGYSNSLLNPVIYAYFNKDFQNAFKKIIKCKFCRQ
Protocol: 5-HT1A Receptor Stimulation Test
CHO cells expressing human 5-HT1A receptor (human 5-HT1A/CHO) were used in the experiment. The cells were cultured in F12 containing 10% FCS, 500 μg/ml Geneticin and 100 U/ml penicillin-100 μg/ml streptomycin (all available from GIBCO) in a 5% CO2 incubator, and a membrane preparation was prepared according to the method^3)of A. Newman et al. In detail, cells scraped and collected by the use of buffer solution A (20 mM HEPES, 5 mM MgSO4) were homogenized in a Teflon™ homogenizer, followed by centrifugation (50,000×g, 30 min, 4° C.). The precipitate was re-suspended in a suitable volume of buffer solution A and stored at −80° C. until use. The amount of protein in the membrane preparation was determined with Dye Reagent Concentrate (BIO-RAD) by using Albumin Bovine (SIGMA) as a standard substance.
Binding of [^35S]GTPγS to human 5-HT1A receptors was measured by the use of the above-mentioned membrane preparation according to the method^3)of A. Newman et al. In detail, 0.05 nM of [^35S]GTPγS (E.I. du Pont de Nemours & Co. NEN) and a definite amount (about 50 μg/tube) of the membrane preparation were added to buffer solution B (20 mM HEPES, 3 mM MgSO4, 3 μM GDP, 1 mM DTT) containing 10^−5 M of each test substance, and the resulting liquid for reaction having a total volume of 1 ml was incubated at 22° C. for 20 minutes. After completion of the reaction, the reaction mixture was diluted with 5 ml of ice-cooled buffer solution B, and the dilution was immediately filtered by suction through glass fiber filter (Whatman, GF/B) to terminate the reaction. The glass fiber filter was washed twice with the same buffer solution as above and placed in a vial, and 4 ml of ACS-II was added thereto. The radioactivity of [^35S]GTPγS on the filter was measured with a liquid scintillation counter. The amount of [^35S]GTPγS specifically bound was calculated from the amount of [^35S]GTPγS non-specifically bound in the presence of 10 μM of GTPγS (Sigma). The 5-HT1A receptor stimulating activity of each test substance was expressed in terms of the rate of increase in [^35S]GTPγS binding by taking an increase in [^35S]GTPγS binding caused by 10 μM of 5-HT, as 100%.

Row | SMILES | Rate of inhibition of [^3H]paroxetine binding (%) [1] | melting point | 5-HT1A receptor stimulating activity (%) (human 5-HT1A receptor)
1 | COc1ccc(Br)c(CC2CCN(CC[C@H]3CC[C@@H](CCO)CC3)CC2)c1.Cl [Example 64, cis-2-(4-(2-(4-(2-Bromo-5-methoxybenzyl)-piperidin-1-yl)ethyl)cyclohexyl)ethanol Hydrochloride] | 96% | 273 °C | 19%
2 | COc1ccc(Br)c(CC2CCN(CC3CCc4ccccc4N3)CC2)c1.Cl.Cl (centres unmarked) [Example 69, 2-((4-(2-Bromo-5-methoxybenzyl)piperidin-1-yl)methyl)-1,2,3,4-tetrahydroquinoline Dihydrochloride] | 95% |  | 63%
3 | COc1ccc(Br)c(CC2CCN(CC[C@H]3CC[C@H](NS(=O)(=O)N(C)C)CC3)CC2)c1.Cl [Example 47, trans-N′-(4-(2-(4-(2-bromo-5-methoxybenzyl)-piperidin-1-yl)ethyl)cyclohexyl)-N,N-dimethylsulfamide hydrochloride] | 100% | 214 °C | 37%
4 | CCN(CCOC)[C@H]1CC[C@H](CCN2CCC(Cc3cc(OC)ccc3Br)CC2)CC1.Cl.Cl [Example 58, trans-N-(4-(2-(4-(2-bromo-5-methoxybenzyl)-piperidin-1-yl)ethyl)cyclohexyl)-N-ethyl-N-(2-methoxyethyl)amine Dihydrochloride] | 100% | 78 °C | 30%
5 | CC(C)Oc1ccc(Br)c(CC2CCN(CC3CCc4ccccc4N3)CC2)c1.Cl.Cl (centres unmarked) [Example 65, 2-((4-(2-Bromo-5-isopropoxybenzyl)piperidin-1-yl)methyl)-1,2,3,4-tetrahydroquinoline Dihydrochloride] | 97% |  | 64%
6 | Cl.Cl.Clc1ccc(Br)c(CC2CCN(CC3CCc4ccccc4N3)CC2)c1 (centres unmarked) [Example 67, 2-((4-(2-Bromo-5-chlorobenzyl)piperidin-1-yl)methyl)-1,2,3,4-tetrahydroquinoline Dihydrochloride] | 81% | 227 °C | 74%
7 | COc1ccc(Br)c(CC2CCN(CCC3CCN(CCO)CC3)CC2)c1.Cl.Cl [Example 6, 2-(4-(2-(4-(2-Bromo-5-methoxybenzyl)-1-piperidinyl)ethyl)-1-piperidinyl)ethanol Dihydrochloride] | 87% |  | 53%
8 | CCN([C@H]1CC[C@H](CCCN2CCC(Cc3cc(OC(C)C)ccc3Br)CC2)CC1)S(C)(=O)=O.Cl [Example 46, trans-N-(4-(3-(4-(2-bromo-5-isopropoxy-benzyl)piperidin-1-yl)propyl)cyclohexyl)-N-ethylmethanesulfonamide Hydrochloride] | 100% |  | 62%
9 | CO[C@H]1CC[C@H](CCN2CCC(Cc3cc(OC(C)C)ccc3Br)CC2)CC1.Cl [Example 44, trans-4-(2-Bromo-5-isopropoxybenzyl)-1-(2-(4-methoxycyclohexyl)ethyl)piperidine Hydrochloride] | 99% | 196 °C | 51%
10 | COc1ccc(Br)c(CC2CCN(CC[C@H]3CC[C@H](NC(=O)C(F)(F)F)CC3)CC2)c1.Cl [Example 48, trans-N-(4-(2-(4-(2-bromo-5-methoxybenzyl)-piperidin-1-yl)ethyl)cyclohexyl)-2,2,2-trifluoro-acetamide Hydrochloride] | 99% | 230 °C | 33%
11 | CCN(CC)[C@H]1CC[C@@H](CCCN2CCC(Cc3cc(OC)ccc3Br)CC2)CC1.Cl.Cl [Example 54, cis-N-(4-(3-(4-(2-bromo-5-methoxybenzyl)-piperidin-1-yl)propyl)cyclohexyl)-N,N-diethylamine Dihydrochloride] | 80% |  | 16%
12 | CCN[C@H]1CC[C@H](CCN2CCC(Cc3cc(OC)ccc3Br)CC2)CC1.Cl.Cl [Example 38, trans-N-(4-(2-(4-(2-bromo-5-methoxybenzyl)-piperidin-1-yl)ethyl)cyclohexyl)-N-ethylamine Dihydrochloride] | 100% |  | 48%
13 | COc1ccc(Br)c(CC2CCN(CC3CNc4ccccc4C3)CC2)c1.Cl.Cl (centres unmarked) [Example 70, 3-((4-(2-Bromo-5-methoxybenzyl)piperidin-1-yl)methyl)-1,2,3,4-tetrahydroquinoline Dihydrochloride] | 84% |  | 7%
